Data on 7 compounds can be found in PubChem BioAssay (NCI).

Several values for one entry are separate records, joined by “and”; a condition that tells them apart may be missing. Equal entries are not always repeated.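 These data come from cells grown in 96-well plates and exposed to compound for 48 hours at five concentrations. At the GI50, growth is halved. TGI marks complete inhibition of growth.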

Among the test systems are 786-0 renal; ACHN renal; HCC-2998 colon; HCT-15 colon; HT29 colon; KM12 colon; OVCAR-8 ovarian; SF-268 CNS; SF-295 CNS; SK-MEL-2 melanoma; SK-MEL-5 melanoma; TK-10 renal; U251 CNS; UO-31 renal; MOLT-4 leukemia; NCI-H226 lung.
Common to all, as to assay: NCI tumour cell line growth inhibition, 48 h

Take `CCOC(=O)N1CCC(N[C@@H]2c3cc4c(cc3C(c3cc(OC)c(O)c(OC)c3)C3C(=O)OC[C@@H]32)OCO4)CC1` (some centres undefined): the TGI was 2.94 µM and 4.8 µM in the experiment on 786-0 renal; 1.63 µM and 1.86 µM in the experiment on ACHN renal; 6.82 µM and 7.22 µM with HCC-2998 colon; 2.97 µM and 4.43 µM in the experiment on HCT-15 colon; 15.5 µM and 10.7 µM in the experiment with HT29 colon; 9.2 µM and 7.56 µM in the experiment on KM12 colon. Besides, the TGI is 11.6 µM and 10.3 µM with OVCAR-8 ovarian; 30.8 µM and > 25 µM in the experiment with SF-268 CNS; 2.53 µM and 2.42 µM in the experiment on SF-295 CNS; 14.9 µM and 11.3 µM with SK-MEL-2 melanoma; 5.71 µM and 5.32 µM with SK-MEL-5 melanoma; 11.9 µM and 9.5 µM in the experiment on TK-10 renal. Further, the TGI in the experiment on U251 CNS is 6.51 µM and 8.32 µM; in the experiment on UO-31 renal it was 3.21 µM and 4.14 µM. Further, the GI50 was 1.53 µM and 3.47 µM in the experiment with HCC-2998 colon; 2.09 µM and 4.27 µM with TK-10 renal.
With `Cc1ccc(/C=N\NC2c3cc(Cl)ccc3Nc3nc(=O)[nH]c(C)c32)cc1` (centres undefined), the TGI in the experiment on 786-0 renal, in the experiment on ACHN renal, in the experiment on HCC-2998 colon, with HT29 colon, with KM12 colon and in the experiment on MOLT-4 leukemia was greater than 100 µM in each case. The TGI in the experiment on NCI-H226 lung, in the experiment with OVCAR-8 ovarian, in the experiment with SF-268 CNS, in the experiment on SF-295 CNS, with SK-MEL-2 melanoma and in the experiment on TK-10 renal was greater than 100 µM in each case. The TGI in the experiment with U251 CNS and in the experiment on UO-31 renal was greater than 100 µM in each case.
As to `CSc1nc(SC)c2c(C#N)[nH]nc2n1`, the TGI in the experiment with 786-0 renal, with ACHN renal, in the experiment on HCC-2998 colon, in the experiment on HCT-15 colon, in the experiment on HT29 colon and with KM12 colon was greater than 100 µM throughout. For the same compound, the TGI with MOLT-4 leukemia, in the experiment on NCI-H226 lung, with OVCAR-8 ovarian, in the experiment on SF-268 CNS, in the experiment with SF-295 CNS and in the experiment with SK-MEL-2 melanoma was greater than 100 µM throughout. For the same compound, the TGI in the experiment with SK-MEL-5 melanoma, with TK-10 renal, in the experiment on U251 CNS and with UO-31 renal was greater than 100 µM in each case.
Regarding `CCOC(=O)C1S/C(=N\C(=N)N[N+](=O)[O-])N=C1C` (centres undefined), the TGI in the experiment with 786-0 renal, with ACHN renal, in the experiment on HCC-2998 colon, in the experiment with HCT-15 colon, with HT29 colon and in the experiment on KM12 colon was greater than 100 µM in each case. Also, the TGI in the experiment on MOLT-4 leukemia, in the experiment with NCI-H226 lung, in the experiment with OVCAR-8 ovarian, with SF-268 CNS, in the experiment with SF-295 CNS and in the experiment on SK-MEL-2 melanoma was greater than 100 µM throughout. For the same compound, the TGI with TK-10 renal, in the experiment on U251 CNS and in the experiment with UO-31 renal was greater than 100 µM in each case.
With `CC(=O)NC1C(OCc2ccccc2)OC(CO)C(O)C1OCC(=O)N[C@@H](C)C(=O)N[C@H](CCC(=O)NCCCNc1c2ccccc2nc2cccc([N+](=O)[O-])c12)C(N)=O` (some centres undefined), the TGI stood at 0.0795 µM with 786-0 renal; 0.115 µM with ACHN renal; 0.0301 µM in the experiment with HCC-2998 colon; 0.376 µM with HCT-15 colon; 0.199 µM in the experiment with HT29 colon; 0.397 µM in the experiment on KM12 colon. In addition, the TGI in the experiment with MOLT-4 leukemia came out at 11 µM; in the experiment on NCI-H226 lung, 0.287 µM; with OVCAR-8 ovarian it was 1.71 µM; in the experiment with SF-295 CNS it was 1.33 µM; in the experiment on SK-MEL-5 melanoma, 0.0383 µM; in the experiment on TK-10 renal, 1.55 µM. Besides, the TGI in the experiment on U251 CNS stood at 4.46 µM; in the experiment with UO-31 renal, 0.341 µM.
For `COc1cc(O)c2c(c1)C(=O)c1cc3c(c(O)c1C2=O)C(OC1OC(C)C(OC)C(O)C1OC)C(OC)C(C)(O)C3=O` (centres undefined), the TGI worked out at 45.5 µM with 786-0 renal; 12.8 µM with ACHN renal; 17.4 µM with HCC-2998 colon; 15.8 µM in the experiment with HCT-15 colon; 11.8 µM in the experiment on HT29 colon; 15.9 µM with KM12 colon. Also, the TGI turned out to be 12.2 µM with MOLT-4 leukemia; 9.54 µM in the experiment on NCI-H226 lung; 10.8 µM in the experiment on OVCAR-8 ovarian; 36.3 µM with SF-268 CNS; 18.3 µM with SF-295 CNS; 23.5 µM in the experiment with SK-MEL-2 melanoma. The values for the TGI in the experiment on SK-MEL-5 melanoma, in the experiment with TK-10 renal and in the experiment on U251 CNS were 3.86 µM, 23.7 µM and 22.8 µM, respectively.
As for `CC1=Cc2cccc(C)c2C(=O)C1=O`, the TGI is 6.96 µM in the experiment on 786-0 renal; 27.8 µM in the experiment on HCC-2998 colon; 16.4 µM in the experiment on HCT-15 colon; 32.3 µM in the experiment with HT29 colon; 19.7 µM in the experiment on KM12 colon; 30.5 µM in the experiment with NCI-H226 lung. Moreover, the TGI with OVCAR-8 ovarian was determined as 41.7 µM; with SF-268 CNS, 25.9 µM; in the experiment with SF-295 CNS it was 11.1 µM; in the experiment on SK-MEL-2 melanoma, 31.9 µM; in the experiment on SK-MEL-5 melanoma, 10.7 µM; in the experiment with TK-10 renal, 4.75 µM. For the same compound, the figures for the TGI in the experiment with U251 CNS and in the experiment on UO-31 renal were 41 µM and 27.1 µM, respectively.
